Tests used:
Conditions in all cases: scale 0 to 100
bluegrass [1] = assay: Test D preemergence; assay type: in vivo, Poa annua
Excerpt: (§1) Seeds of plant species selected from bluegrass (annual bluegrass, Poa annua), blackgrass (Alopecurus myosuroides), canarygrass (littleseed canarygrass, Phalaris minor), chickweed (common chickweed, Stellaria media), galium (catchweed bedstraw, Galium aparine), bromegrass, downy (downy bromegrass, Bromus tectorum), field poppy (Papaver rhoeas), field violet (Viola arvensis), foxtail, green (green foxtail, Setaria viridis), deadnettle (henbit deadnettle, Lamium amplexicaule), ryegrass, Italian (Italian ryegrass, Lolium multiflorum), kochia (Kochia scoparia), lambsquarters (Chenopodium album), oilseed rape (Brassica napus), pigweed (redroot pigweed, Amaranthus retroflexus), chamomile (scentless chamomile, Matricaria inodora), speedwell (bird's-eye speedwell, Veronica persica), barley, spring (spring barley, Hordeum vulgare), wheat, spring (spring wheat, Triticum aestivum), buckwheat, wild (wild buckwheat, Polygonum convolvulus), mustard, wild (wild mustard, Sinapis arvensis), oat, wild (wild oat, Avena fatua), radish, wild (wild radish, Raphanus raphanistrum), windgrass (Apera spica-venti), Russian thistle (Salsola kali), barley, winter (winter barley, Hordeum vulgare), and wheat, winter (winter wheat, Triticum aestivum) were planted into a silt loam soil and treated preemergence with test chemicals formulated in a non-phytotoxic solvent mixture which included a surfactant.
(§2) At the same time, these species were planted in pots containing Redi-Earth® planting medium (Scotts Company, 14111 Scottslawn Road, Marysville, Ohio 43041) comprising spaghnum peat moss, vermiculite, wetting agent and starter nutrients and treated with postemergence applications of the test chemicals formulated in the same manner. Plants ranged in height from 2 to 18 cm (1- to 4-leaf stage). Treated plants and controls were maintained in a controlled growth environment for 14 to 21 days after which time all species were compared to controls and visually evaluated. Plant response ratings, summarized in Table D, are based on a scale of 0 to 100 where 0 is no effect and 100 is complete control. A dash (-) response means no test result.

canarygrass = assay: Test D preemergence; assay type: in vivo, Phalaris minor
Excerpt: as §1, §2

bromegrass, downy = assay: Test D preemergence; assay type: in vivo, Bromus tectorum
Excerpt: as §1, §2

deadnettle = assay: Test D preemergence; assay type: in vivo, Lamium amplexicaule
Excerpt: as §1, §2

kochia = assay: Test D preemergence; assay type: in vivo, Kochia scoparia
Excerpt: as §1, §2

oilseed rape = assay: Test D preemergence; assay type: in vivo, Brassica napus
Excerpt: as §1, §2

bluegrass [2] = assay: Test D postemergence; assay type: in vivo, Poa annua
Excerpt: as §1, §2

galium = assay: Test D postemergence; assay type: in vivo, Galium aparine
Excerpt: as §1, §2

speedwell = assay: Test D postemergence; assay type: in vivo, Veronica persica
Excerpt: as §1, §2

buckwheat, wild = assay: Test D postemergence; assay type: in vivo, Polygonum convolvulus
Excerpt: as §1, §2

CCc1cc(C(=O)NC(C)C)nn1Cc1ccnc(C(F)(F)F)c1 [Compound 103]
Plant response rating, Bluegrass (bluegrass [1]; 31 g ai/ha): 10
Plant response rating, Bluegrass (bluegrass [1]; 62 g ai/ha): 35
Plant response rating, Bluegrass (bluegrass [1]; 125 g ai/ha): 65
Plant response rating, Bluegrass (bluegrass [1]; 250 g ai/ha): 85
Plant response rating, Canarygrass (canarygrass; 31 g ai/ha): 5
Plant response rating, Canarygrass (canarygrass; 62 g ai/ha): 55
Plant response rating, Canarygrass (canarygrass; 125 g ai/ha): 80
Plant response rating, Canarygrass (canarygrass; 250 g ai/ha): 100
Plant response rating, Bromegrass, Downy (bromegrass, downy; 31 g ai/ha): 5
Plant response rating, Bromegrass, Downy (bromegrass, downy; 62 g ai/ha): 10
Plant response rating, Bromegrass, Downy (bromegrass, downy; 125 g ai/ha): 40
Plant response rating, Bromegrass, Downy (bromegrass, downy; 250 g ai/ha): 85
Plant response rating, Deadnettle (deadnettle; 31 g ai/ha): 5
Plant response rating, Deadnettle (deadnettle; 62 g ai/ha): 15
Plant response rating, Deadnettle (deadnettle; 125 g ai/ha): 30
Plant response rating, Deadnettle (deadnettle; 250 g ai/ha): 30
Plant response rating, Kochia (kochia; 31 g ai/ha): 10
Plant response rating, Kochia (kochia; 62 g ai/ha): 65
Plant response rating, Kochia (kochia; 125 g ai/ha): 85
Plant response rating, Kochia (kochia; 250 g ai/ha): 100
Plant response rating, Oilseed Rape (oilseed rape; 31 g ai/ha): 25
Plant response rating, Oilseed Rape (oilseed rape; 62 g ai/ha): 30
Plant response rating, Oilseed Rape (oilseed rape; 125 g ai/ha): 35
Plant response rating, Oilseed Rape (oilseed rape; 250 g ai/ha): 95
Bluegrass plant response rating (bluegrass [2]; Postemergence, 31 g ai/ha): 10
Bluegrass plant response rating (bluegrass [2]; Postemergence, 125 g ai/ha): 20
Bluegrass plant response rating (bluegrass [2]; Postemergence, 250 g ai/ha): 30
Bluegrass plant response rating (bluegrass [2]; postemergence, 62 g ai/ha): 25
Galium plant response rating (galium; Postemergence, 31 g ai/ha): 55
Galium plant response rating (galium; Postemergence, 125 g ai/ha): 75
Galium plant response rating (galium; Postemergence, 250 g ai/ha): 80
Galium plant response rating (galium; postemergence, 62 g ai/ha): 70
Speedwell plant response rating (speedwell; Postemergence, 31 g ai/ha): 35
Speedwell plant response rating (speedwell; Postemergence, 125 g ai/ha): 55
Speedwell plant response rating (speedwell; Postemergence, 250 g ai/ha): 70
Speedwell plant response rating (speedwell; postemergence, 62 g ai/ha): 45
Buckwheat, Wild plant response rating (buckwheat, wild; Postemergence, 31 g ai/ha): 25
Buckwheat, Wild plant response rating (buckwheat, wild; Postemergence, 125 g ai/ha): 55
Buckwheat, Wild plant response rating (buckwheat, wild; Postemergence, 250 g ai/ha): 60
Buckwheat, Wild plant response rating (buckwheat, wild; postemergence, 62 g ai/ha): 50

CCCc1cc(C(=O)NCC(F)(F)F)nn1Cc1cc(C(F)(F)F)nn1C [Compound 138]
Plant response rating, Bluegrass (bluegrass [1]; 31 g ai/ha): 20
Plant response rating, Bluegrass (bluegrass [1]; 62 g ai/ha): 55
Plant response rating, Bluegrass (bluegrass [1]; 125 g ai/ha): 90
Plant response rating, Bluegrass (bluegrass [1]; 250 g ai/ha): 100
Plant response rating, Canarygrass (canarygrass; 31 g ai/ha): 15
Plant response rating, Canarygrass (canarygrass; 62 g ai/ha): 70
Plant response rating, Canarygrass (canarygrass; 125 g ai/ha): 100
Plant response rating, Canarygrass (canarygrass; 250 g ai/ha): 100
Plant response rating, Bromegrass, Downy (bromegrass, downy; 31 g ai/ha): 10
Plant response rating, Bromegrass, Downy (bromegrass, downy; 62 g ai/ha): 15
Plant response rating, Bromegrass, Downy (bromegrass, downy; 125 g ai/ha): 20
Plant response rating, Bromegrass, Downy (bromegrass, downy; 250 g ai/ha): 65
Plant response rating, Deadnettle (deadnettle; 31 g ai/ha): 85
Plant response rating, Deadnettle (deadnettle; 62 g ai/ha): 100
Plant response rating, Deadnettle (deadnettle; 125 g ai/ha): 100
Plant response rating, Deadnettle (deadnettle; 250 g ai/ha): 100
Plant response rating, Kochia (kochia; 62 g ai/ha): 95
Plant response rating, Kochia (kochia; 125 g ai/ha): 100
Plant response rating, Kochia (kochia; 250 g ai/ha): 100
Plant response rating, Oilseed Rape (oilseed rape; 62 g ai/ha): 40
Plant response rating, Oilseed Rape (oilseed rape; 125 g ai/ha): 100
Plant response rating, Oilseed Rape (oilseed rape; 250 g ai/ha): 100
Bluegrass plant response rating (bluegrass [2]; Postemergence, 31 g ai/ha): 15
Bluegrass plant response rating (bluegrass [2]; Postemergence, 125 g ai/ha): 30
Bluegrass plant response rating (bluegrass [2]; Postemergence, 250 g ai/ha): 60
Bluegrass plant response rating (bluegrass [2]; postemergence, 62 g ai/ha): 15
Galium plant response rating (galium; Postemergence, 31 g ai/ha): 80
Galium plant response rating (galium; Postemergence, 125 g ai/ha): 100
Galium plant response rating (galium; Postemergence, 250 g ai/ha): 100
Galium plant response rating (galium; postemergence, 62 g ai/ha): 80
Speedwell plant response rating (speedwell; Postemergence, 31 g ai/ha): 100
Speedwell plant response rating (speedwell; Postemergence, 125 g ai/ha): 100
Speedwell plant response rating (speedwell; Postemergence, 250 g ai/ha): 100
Speedwell plant response rating (speedwell; postemergence, 62 g ai/ha): 100
Buckwheat, Wild plant response rating (buckwheat, wild; Postemergence, 31 g ai/ha): 65
Buckwheat, Wild plant response rating (buckwheat, wild; Postemergence, 125 g ai/ha): 70
Buckwheat, Wild plant response rating (buckwheat, wild; Postemergence, 250 g ai/ha): 80
Buckwheat, Wild plant response rating (buckwheat, wild; postemergence, 62 g ai/ha): 65

CCOc1cc(C(=O)NC2CC2)nn1Cc1ccnc(C(F)(F)F)c1 [Compound 189]
Plant response rating, Bluegrass (bluegrass [1]; 31 g ai/ha): 15
Plant response rating, Bluegrass (bluegrass [1]; 62 g ai/ha): 50
Plant response rating, Bluegrass (bluegrass [1]; 125 g ai/ha): 70
Plant response rating, Bluegrass (bluegrass [1]; 250 g ai/ha): 85
Plant response rating, Canarygrass (canarygrass; 31 g ai/ha): 10
Plant response rating, Canarygrass (canarygrass; 62 g ai/ha): 50
Plant response rating, Canarygrass (canarygrass; 125 g ai/ha): 85
Plant response rating, Canarygrass (canarygrass; 250 g ai/ha): 100
Plant response rating, Bromegrass, Downy (bromegrass, downy; 31 g ai/ha): 0
Plant response rating, Bromegrass, Downy (bromegrass, downy; 62 g ai/ha): 15
Plant response rating, Bromegrass, Downy (bromegrass, downy; 125 g ai/ha): 20
Plant response rating, Bromegrass, Downy (bromegrass, downy; 250 g ai/ha): 55
Plant response rating, Deadnettle (deadnettle; 31 g ai/ha): 90
Plant response rating, Deadnettle (deadnettle; 62 g ai/ha): 100
Plant response rating, Deadnettle (deadnettle; 125 g ai/ha): 100
Plant response rating, Deadnettle (deadnettle; 250 g ai/ha): 100
Plant response rating, Kochia (kochia; 62 g ai/ha): 100
Plant response rating, Kochia (kochia; 125 g ai/ha): 100
Plant response rating, Kochia (kochia; 250 g ai/ha): 100
Plant response rating, Oilseed Rape (oilseed rape; 62 g ai/ha): 55
Plant response rating, Oilseed Rape (oilseed rape; 125 g ai/ha): 80
Plant response rating, Oilseed Rape (oilseed rape; 250 g ai/ha): 100
Bluegrass plant response rating (bluegrass [2]; Postemergence, 31 g ai/ha): 15
Bluegrass plant response rating (bluegrass [2]; Postemergence, 125 g ai/ha): 15
Bluegrass plant response rating (bluegrass [2]; Postemergence, 250 g ai/ha): 30
Bluegrass plant response rating (bluegrass [2]; postemergence, 62 g ai/ha): 15
Galium plant response rating (galium; Postemergence, 31 g ai/ha): 75
Galium plant response rating (galium; Postemergence, 125 g ai/ha): 75
Galium plant response rating (galium; Postemergence, 250 g ai/ha): 85
Galium plant response rating (galium; postemergence, 62 g ai/ha): 75
Speedwell plant response rating (speedwell; Postemergence, 31 g ai/ha): 70
Speedwell plant response rating (speedwell; Postemergence, 125 g ai/ha): 85
Speedwell plant response rating (speedwell; Postemergence, 250 g ai/ha): 90
Speedwell plant response rating (speedwell; postemergence, 62 g ai/ha): 70
Buckwheat, Wild plant response rating (buckwheat, wild; Postemergence, 31 g ai/ha): 70
Buckwheat, Wild plant response rating (buckwheat, wild; Postemergence, 125 g ai/ha): 70
Buckwheat, Wild plant response rating (buckwheat, wild; Postemergence, 250 g ai/ha): 80
Buckwheat, Wild plant response rating (buckwheat, wild; postemergence, 62 g ai/ha): 70

— patent US20150105252A1, “SUBSTITUTED PYRAZOLES AS HERBICIDES” (E I DU PONT DE NEMOURS AND COMPANY, priority 2013, published 2015)
